According to US5075337A, “Alpha-deuterated 2-alkylaminoacetamide derivatives having reduced toxicity for treatment of CNS disorders” (G. D. Searle & Co., priority 1989, dated 1991):

Legend:
[1] = molecular target: T1, monoamine oxidase enzyme (MAO-B) (Rattus norvegicus, UniProt P19643); assay: MAO-B enzyme inhibition assay (rat brain mitochondria, preincubation with inhibitor); type: biochemical, rat (Sprague Dawley)
T1 construct: 14C-beta-phenylethylamine substrate
T1 sequence (P19643 1-520): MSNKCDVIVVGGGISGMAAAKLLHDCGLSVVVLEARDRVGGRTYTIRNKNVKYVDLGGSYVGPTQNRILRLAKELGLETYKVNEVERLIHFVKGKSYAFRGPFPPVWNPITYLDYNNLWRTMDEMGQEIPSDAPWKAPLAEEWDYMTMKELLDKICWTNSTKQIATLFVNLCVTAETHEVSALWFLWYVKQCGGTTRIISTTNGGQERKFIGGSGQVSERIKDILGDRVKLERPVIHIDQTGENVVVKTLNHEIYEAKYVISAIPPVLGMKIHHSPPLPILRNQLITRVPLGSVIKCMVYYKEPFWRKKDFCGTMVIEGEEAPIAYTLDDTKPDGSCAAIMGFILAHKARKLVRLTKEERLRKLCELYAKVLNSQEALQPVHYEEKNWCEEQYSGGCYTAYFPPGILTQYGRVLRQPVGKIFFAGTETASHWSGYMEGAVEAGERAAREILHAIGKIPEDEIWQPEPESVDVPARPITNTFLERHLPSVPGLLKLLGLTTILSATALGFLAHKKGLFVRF
Description: Rat brain mitochondria were purified by a modification of the method of Dodd (Dodd Sprague Dawley rats of about 200 gr were decapitated and the brain was rapidly removed from the skull. Brains were homogenized with a glass-Teflon homogenizer in ice cold 0.32M sucrose (1/10, w/v). The homogenate was centrifuged at 2,400 g for 10 min at 4° C. The supernatant was centrifuged at 3,000 g for 10 min at 4° C. This last supernatant (8 ml) was poured into at tube containing 4 ml of 1.2M sucrose. The mitochondrial fraction is obtained after a centrifugation at 115,000 g for 30 min at 4° C. The mitochondrial pellet was suspended in 4 ml of 50 mM Na phosphate buffer and stored as aliquots at -30° C. […] Aliquots of the mitochondrial fraction were preincubated with ^2 H-milacemide or milacemide (200 μM in 50 mM Na phosphate buffer pH8) for different time periods, the samples were diluted with the incubation buffer, centrifuged and the pelleis were then used for the MAO assay. The enzymatic assay was performed in Eppendorf micro tubes (1.5 ml). The 100 μl total incubation volume contained 40 μl of 7 mM ^14 C-β-phenylethylamine, 20 μl of 50 mM Na phosphate buffer pH 8 and 40 μl of the pre-incubated mitochondrial fraction (0.2 mg protein/ml). The closed micro tubes were immediately shaken using a vortex and incubated during 4 min at 37° C. The reaclion was stopped by adding 20 μl of 1.5 N Hcl into the tube placed in an ice bath. The deaminated products were extracted with 600 μl of a toluene-ethyl acetate mixture (water saturated) and strongly mixed during 30 sec. The two layers were separated by centrifugation (10.000 g) for 10 min. Then, 400μL of the organic layer were added to 4 ml of lumagel in a scintillation counting vial. Blank values are obtained by incubating the mitochondrial fraction with Hcl 1.5M.

[2] = test system: convulsions induced by 3-mercaptopropionic acid (3-MPA); assay: Prevention of chemically induced convulsions (3-MPA); type: in vivo, mouse (male Swiss albino); conditions: 100 mg/kg oral; 3-MPA 120 mg/kg subcutaneously; two groups of 5 mice
Description: (§1) The anticonvulsive effect of a compound of the invention was examined for clonic, tonic convulsions and death induced by different convulsant agents, namely, 3-mercaptopropionic acid (3-MPA 120 mg/kg subcutaneously) and bicuculline (BIC, 0.6 mg/kg intravenously), (W. van Dorsser, D. Barris, A. Cordi and J. Roba; Arch. Int. Pharmacodyn., 266: 239-249 (1983)). The compounds of the invention were administered orally at dosage of either 100 mg/kg (3-MPA) or 30 mg/kg (BIc) in a volume of 10 ml/kg, each to 5 mice, 30 minutes or 2 hours before convulsions were induced. Test mice used were male Swiss albino mice weighing 22-33 g, CDl, charles River, France, housed in group of 10 on a 12 hours light-dark cycle for at least 1 week before use, and fasted overnight. The number of mice protected against tonic convulsions and the number of dead mice were noted. The results are given as a score which represents the total number of mice protected by a dose of 100 mg/kg for two groups of 5 animals (3-MPA) or the percentage of mice protected by a dose of 30 mg/kg in 4 groups of 5 animals (BIC).

[3] = test system: convulsions induced by bicuculline (BIC); assay: Prevention of chemically induced convulsions (bicuculline); type: in vivo, mouse (male Swiss albino); conditions: 30 mg/kg oral; bicuculline 0.6 mg/kg intravenously; 4 groups of 5 mice
Description: as §1

[4] = Comparative pharmacokinetic study, 1:1 mixture of milacemide and ^2 H-milacemide; type: in vivo, cynomolgus monkey (Macaca fascicularis); conditions: for ^2 H-milacemide/milacemide ratio, plasma AUC / ^2 H-milacemide/milacemide ratio, urine 24 hours excretion: 1:1 mixture
Description: A comparative pharmacokinetic study was conducted in the cynomolgus monkey (Macaca fascicularis) with a 1:1 mixture of milacemide and ^2 H-milacemide administered to 4 males and 4 females used in this study. One animal of each sex received the mixture either by the i.v. route at the dose of 30 mg/kg, or by the intragastric route at the dose of 30 mg/kg or 100 mg/kg, or 300 mg/kg. Plasma samples were drawn from the males and 0-24 hours urine samples were collected by the females. Preliminary determinations of milacemide in the urine samples were made by HPLC. […] The aqueous solution was made alkaline by the addition of 0.3 mL of 0 5M borate buffer at pH 9.3. Derivatization occurs by addition of 0.3 mL of a solution of fluorescamine in acetone (75 g/L), then 10 to 20 pL aliquots were injected on a 5 Bondapak C18 column eluted by a mixture of tetrahydrofuran, water and 0.5M borate buffer (2/6/2) adjusted to pH 8 by the addition of hydrochloric acid. […] Analysis of the ratio of unchanged deutero milacemide versus milacemide, was performed by GC-MS Milacemide and ^2 H-milacemide extracted from plasma aliquots were transformed into their respective N-trifluoroacetylated nitrile by reaction with trifluoroacetic anhydride. After separation from the impurities, on a 3% OV 17 column, the mass spectra were obtained in the chemical ionization mode by ammonia on a Riber 10-10 B mass spectrometer. […] Quantification was performed using selected ion monitoring (SIM) on the base peaks mentioned.

[5] = in words; literature; cited from earlier work
[6] = test system: MAO-B enzyme; conditions: in words; literature; cited from earlier work
[7] = 200 μM, preincubation, pH 8, rat brain mitochondria, 50% inhibition
[8] = compared with milacemide, in words

[2H]C([2H])(CCCC)NCC(N)=O [^2 H-milacemide, 2-(1,1-dideuteropentylamino)acetamide]
time to reach the same level of inhibition (50%) of MAO-B [1, 7]: at least 3 hours | fold more time needed to reach the same level (50%) of MAO-B inhibition, ^2 H-milacemide vs milacemide ([1]; ^2 H-milacemide relative to milacemide): 6 fold | 3-MPA (% Protected) [2]: 10% | BIC (% Protected) [3]: 45% | ^2 H-milacemide/milacemide ratio, plasma AUC ([4]; 30 mg/kg i.g.): 14.6 | ^2 H-milacemide/milacemide ratio, urine 24 hours excretion ([4]; 30 mg/kg i.g.): 7.4 | ^2 H-milacemide/milacemide ratio, plasma AUC ([4]; 30 mg/kg i.v.): 2.6 | ^2 H-milacemide/milacemide ratio, urine 24 hours excretion ([4]; 30 mg/kg i.v.): 3.1 | ^2 H-milacemide/milacemide ratio, plasma AUC ([4]; 100 mg/kg i.g.): 9.2 | ^2 H-milacemide/milacemide ratio, urine 24 hours excretion ([4]; 100 mg/kg i.g.): 5.2 | ^2 H-milacemide/milacemide ratio, plasma AUC ([4]; 300 mg/kg i.g.): 7.1 | ^2 H-milacemide/milacemide ratio, urine 24 hours excretion ([4]; 300 mg/kg i.g.): 3.7 | first pass effect [4, 8]: reduced first pass effect | half-life [4, 8]: prolonged | metabolic clearance [4, 8]: decreased metabolic clearance

CCCCCNCC(N)=O [milacemide, 2-n-pentylaminoacetamide, reference compound]
time to inhibit MAO-B activity by 50% [1, 7]: 30 min | 3-MPA (% Protected) [2]: 20% | BIC (% Protected) [3]: 65% | brain bioavailability [5]: limited brain bioavailability | metabolism in the peripheral system by the MAO-B enzyme [6]: metabolized in the peripheral system by the MAO-B enzyme

NNCCc1ccccc1 [phenelzine]
brain bioavailability [5]: limiting its brain bioavailability | metabolism in the peripheral system by the MAO-B enzyme [6]: metabolized in the peripheral system by the MAO-B enzyme
